We go through 26 compounds from patent US8309584B2, “Sulfur containing pyrazole-heterocycle derivatives as cannabinoid CB1 receptor antagonists” (Green Cross Corporation, priority 2008, dated 2012).

The target of one test is T1, rat CB-1 receptor (Rattus norvegicus, UniProt P20272).
T1 construct: The tissue obtained from the brain of SD rats was homogenized; from tissue; host or cells: SD rat brain membrane homogenate
T1 sequence (P20272 whole entry): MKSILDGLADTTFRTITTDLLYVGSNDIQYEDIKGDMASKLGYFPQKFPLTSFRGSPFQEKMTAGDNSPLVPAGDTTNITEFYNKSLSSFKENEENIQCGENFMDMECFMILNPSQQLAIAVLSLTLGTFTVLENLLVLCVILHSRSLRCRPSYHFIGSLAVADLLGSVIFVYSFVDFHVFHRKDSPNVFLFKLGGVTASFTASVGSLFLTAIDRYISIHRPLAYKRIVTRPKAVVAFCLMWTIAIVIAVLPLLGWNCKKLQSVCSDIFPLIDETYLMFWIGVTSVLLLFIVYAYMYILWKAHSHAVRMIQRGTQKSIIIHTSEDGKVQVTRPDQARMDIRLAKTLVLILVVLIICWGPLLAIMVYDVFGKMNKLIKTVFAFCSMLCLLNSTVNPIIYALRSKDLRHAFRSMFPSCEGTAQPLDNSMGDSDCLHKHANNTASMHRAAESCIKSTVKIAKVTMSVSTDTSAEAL
Nature of the test: rat cannabinoid-1 receptor (CB1R) binding affinity assay.
Settings: not given
Here is the method: The tissue obtained from the brain of SD rats was homogenized with a Dounce homogenate system in TME(50 mM Tris, 3 mM MgCl2 and 1 mM EDTA, pH 7.4) at 4° C., and the homogenate was centrifuged at 48,000 g for 30 min. at 4° C. The pellet was resuspended in 5 ml of TME and the suspension was divided into aliquots and stored at −70° C. until its use in the following assay.
The tissue concentrations were determined by Bradford protein analysis, and 148 μl of brain tissue of the required concentration was added to the plate. The plate was covered and placed in a 30° C. incubator for 60 min, and then transformed on GF/B filtermat pretreated in polyethylenimine (PEI) using a cell harvester. Each filter was washed five times and dried at 60° C. for 1 hr. Then, the degree of radioactivity retained by the filter was measured using Wallac Microbeta™ (PerkinElmer Life Sciences, Inc., Massachusetts, U.S.A.) and the activity of the compound for inhibiting CB1 receptor was determined therefrom.
Regarding `CSc1c(-c2nnc(C3(C(F)(F)F)CCC3)s2)nn(-c2ccc(Cl)cc2Cl)c1-c1ccc(Cl)cc1` [Example 23, 2-(5-(4-chlorophenyl)-1-(2,4-dichlorophenyl)-4-(methylthio)-1H-pyrazol-3-yl)-5-(1-(trifluoromethyl)cyclobutyl)-1,3,4-thiadiazole], the IC50 came to 7.31 nM. Still for that read-out and setting: under `CS(=O)(=O)c1c(-c2nnc(C3(C(F)(F)F)CCC3)o2)nn(-c2ccc(Cl)cc2Cl)c1-c1ccc(Cl)cc1` [Example 82, 2-(5-(4-chlorophenyl)-1-(2,4-dichlorophenyl)-4-(methylsulfonyl)-1H-pyrazol-3-yl)-5-(1-(trifluoromethyl)cyclobutyl)-1,3,4-oxadiazole] stands 6.79 nM.

Still in this test, the particulars now being: [3H]CP-55940 radioligand, SD rat brain tissue homogenate, 30° C., 60 min; read-out: IC50.
In the case of `C[S+]([O-])c1c(-c2nnc(C(C)(C)C)o2)nn(-c2ccccc2Cl)c1-c1ccc(Br)cc1` (centres unmarked) [Example 53, 2-(5-(4-bromophenyl)-1-(2-chlorophenyl)-4-(methylsulfinyl)-1H-pyrazol-3-yl)-5-tert-butyl-1,3,4-oxadiazole], the IC50 was 15.6 nM. For `CC(C)(C)c1nnc(-c2nn(-c3ccccc3Cl)c(-c3ccc(Br)cc3)c2S(C)(=O)=O)o1` [Example 92, 2-(5-(4-bromophenyl)-1-(2-chlorophenyl)-4-(methylsulfonyl)-1H-pyrazol-3-yl)-5-tert-butyl-1,3,4-oxadiazole], the IC50 turned out to be 8.15 nM. Same read-out and setting: under `C[S+]([O-])c1c(-c2nnc(C(C)(C)C)s2)nn(-c2ccccc2Cl)c1-c1ccc(Br)cc1` (centres unmarked) [Example 72, 2-(5-(4-bromophenyl)-1-(2-chlorophenyl)-4-(methylsulfinyl)-1H-pyrazol-3-yl)-5-tert-butyl-1,3,4-thiadiazole] stands 7.97 nM; under `C[S+]([O-])c1c(-c2nnc(C3(c4ccc(Cl)cc4)CC3)s2)nn(-c2ccc(Cl)cc2Cl)c1-c1ccc(Cl)cc1` (centres unmarked) [Example 63, 2-(5-(4-chlorophenyl)-1-(2,4-dichlorophenyl)-4-(methylsulfinyl)-1H-pyrazol-3-yl)-5-(1-(4-chlorophenyl)cyclopropyl)-1,3,4-thiadiazole], 11.8 nM.

`C[S+]([O-])c1c(-c2nnc(C3(C(F)(F)F)CC3)s2)nn(-c2ccccc2Cl)c1-c1ccc(Br)cc1` (centres unmarked) [Example 73, 2-(5-(4-bromophenyl)-1-(2-chlorophenyl)-4-(methylsulfinyl)-1H-pyrazol-3-yl)-5-(1-(trifluoromethyl)cyclopropyl)-1,3,4-thiadiazole]: the IC50 amounted to 6.08 nM. Turning to `CC(C)(C)c1nnc(-c2nn(-c3ccc(Cl)cc3Cl)c(-c3ccc(Br)cc3)c2S(C)(=O)=O)o1` [Example 88, 2-(5-(4-bromophenyl)-1-(2,4-dichlorophenyl)-4-(methylsulfonyl)-1H-pyrazol-3-yl)-5-tert-butyl-1,3,4-oxadiazole], the IC50 came out at 14.2 nM. Still for that read-out and setting: under `CSc1c(-c2nnc(C3(C(F)(F)F)CC3)s2)nn(-c2ccc(Cl)cc2Cl)c1-c1ccc(Br)cc1` [Example 30, 2-(5-(4-bromophenyl)-1-(2,4-dichlorophenyl)-4-(methylthio)-1H-pyrazol-3-yl)-5-(1-(trifluoromethyl)cyclopropyl)-1,3,4-thiadiazole] stands 14.8 nM; under `CC(C)(C)c1nnc(-c2nn(-c3ccccc3Cl)c(-c3ccc(Br)cc3)c2S(C)(=O)=O)s1` [Example 112, 2-(5-(4-bromophenyl)-1-(2-chlorophenyl)-4-(methylsulfonyl)-1H-pyrazol-3-yl)-5-tert-butyl-1,3,4-thiadiazole], 3.01 nM; under `CSc1c(-c2nnc(C3(C(F)(F)F)CCC3)o2)nn(-c2ccc(Cl)cc2Cl)c1-c1ccc(Br)cc1` [Example 11, 2-(5-(4-bromophenyl)-1-(2,4-dichlorophenyl)-4-(methylthio)-1H-pyrazol-3-yl)-5-(1-(trifluoromethyl)cyclobutyl)-1,3,4-oxadiazole], 8.44 nM.

In the case of `CS(=O)(=O)c1c(-c2nnc(C3(C(F)(F)F)CCC3)o2)nn(-c2ccccc2Cl)c1-c1ccc(Br)cc1` [Example 94, 2-(5-(4-bromophenyl)-1-(2-chlorophenyl)-4-(methylsulfonyl)-1H-pyrazol-3-yl)-5-(1-(trifluoromethyl)cyclobutyl)-1,3,4-oxadiazole], the IC50 was 5.21 nM. Consider `CCS(=O)(=O)c1c(-c2nnc(C3(c4ccc(Cl)cc4)CC3)s2)nn(-c2ccc(Cl)cc2Cl)c1-c1ccc(Cl)cc1` [Example 119, 2-(5-(4-chlorophenyl)-1-(2,4-dichlorophenyl)-4-(ethylsulfonyl)-1H-pyrazol-3-yl)-5-(1-(4-chlorophenyl)cyclopropyl)-1,3,4-thiadiazole], for which the IC50 was 2.06 nM.

With `CC(C)(C)c1nnc(-c2nn(-c3ccccc3Cl)c(-c3ccc(Cl)cc3)c2S(C)(=O)=O)s1` [Example 104, 2-tert-butyl-5-(1-(2-chlorophenyl)-5-(4-chlorophenyl)-4-(methylsulfonyl)-1H-pyrazol-3-yl)-1,3,4-thiadiazole], the IC50 was determined as 7.18 nM. The same measure, in the same setting: under `C[S+]([O-])c1c(-c2nnc(C(C)(C)C)o2)nn(-c2ccc(Cl)cc2Cl)c1-c1ccc(Cl)cc1` (centres unmarked) [Example 41, 2-tert-butyl-5-(5-(4-chlorophenyl)-1-(2,4-dichlorophenyl)-4-(methylsulfinyl)-1H-pyrazol-3-yl)-1,3,4-oxadiazole] stands 30.4 nM; under `C[S+]([O-])c1c(-c2nnc(C3(C(F)(F)F)CCC3)s2)nn(-c2ccccc2Cl)c1-c1ccc(Br)cc1` (centres unmarked) [Example 74, 2-(5-(4-bromophenyl)-1-(2-chlorophenyl)-4-(methylsulfinyl)-1H-pyrazol-3-yl)-5-(1-(trifluoromethyl)cyclobutyl)-1,3,4-thiadiazole], 2.32 nM; under `CS(=O)(=O)c1c(-c2nnc(C3(c4ccc(Cl)cc4)CC3)s2)nn(-c2ccccc2Cl)c1-c1ccc(Br)cc1` [Example 115, 2-(5-(4-bromophenyl)-1-(2-chlorophenyl)-4-(methylsulfonyl)-1H-pyrazol-3-yl)-5-(1-(4-chlorophenyl)cyclopropyl)-1,3,4-thiadiazole], 1.4 nM.

Turning to `C[S+]([O-])c1c(-c2nnc(C3(C(F)(F)F)CC3)o2)nn(-c2ccc(Cl)cc2Cl)c1-c1ccc(Cl)cc1` (centres unmarked) [Example 42, 2-(5-(4-chlorophenyl)-1-(2,4-dichlorophenyl)-4-(methylsulfinyl)-1H-pyrazol-3-yl)-5-(1-(trifluoromethyl)cyclopropyl)-1,3,4-oxadiazole], the IC50 was 24.6 nM. Same read-out and setting: under `CSc1c(-c2nnc(C(C)(C)C)s2)nn(-c2ccc(Cl)cc2Cl)c1-c1ccc(Cl)cc1` [Example 21, 2-tert-butyl-5-(5-(4-chlorophenyl)-1-(2,4-dichlorophenyl)-4-(methylthio)-1H-pyrazol-3-yl)-1,3,4-thiadiazole] stands 5.19 nM; under `C[S+]([O-])c1c(-c2nnc(C3(C(F)(F)F)CC3)s2)nn(-c2ccc(Cl)cc2Cl)c1-c1ccc(Cl)cc1` (centres unmarked) [Example 61, 2-(5-(4-chlorophenyl)-1-(2,4-dichlorophenyl)-4-(methylsulfinyl)-1H-pyrazol-3-yl)-5-(1-(trifluoromethyl)cyclopropyl)-1,3,4-thiadiazole], 11.3 nM.

Regarding `CSc1c(-c2nnc(C3(C(F)(F)F)CCC3)o2)nn(-c2ccc(Cl)cc2Cl)c1-c1ccc(Cl)cc1` [Example 3, 2-(5-(4-chlorophenyl)-1-(2,4-dichlorophenyl)-4-(methylthio)-1H-pyrazol-3-yl)-5-(1-(trifluoromethyl)cyclobutyl)-1,3,4-oxadiazole], the IC50 was 9.71 nM.

With `C[S+]([O-])c1c(-c2nnc(C3(C(F)(F)F)CCC3)o2)nn(-c2ccccc2Cl)c1-c1ccc(Br)cc1` (centres unmarked) [Example 55, 2-(5-(4-bromophenyl)-1-(2-chlorophenyl)-4-(methylsulfinyl)-1H-pyrazol-3-yl)-5-(1-(trifluoromethyl)cyclobutyl)-1,3,4-oxadiazole], the IC50 turned out to be 6.51 nM.

On to `C[S+]([O-])c1c(-c2nnc(C3(C(F)(F)F)CCC3)s2)nn(-c2ccc(Cl)cc2Cl)c1-c1ccc(Cl)cc1` (centres unmarked) [Example 62, 2-(5-(4-chlorophenyl)-1-(2,4-dichlorophenyl)-4-(methylsulfinyl)-1H-pyrazol-3-yl)-5-(1-(trifluoromethyl)cyclobutyl)-1,3,4-thiadiazole], for which the IC50 came out at 4.12 nM. Regarding `CSc1c(-c2nnc(C3(c4ccc(Cl)cc4)CC3)o2)nn(-c2ccc(Cl)cc2Cl)c1-c1ccc(Br)cc1` [Example 12, 2-(5-(4-bromophenyl)-1-(2,4-dichlorophenyl)-4-(methylthio)-1H-pyrazol-3-yl)-5-(1-(4-chlorophenyl)cyclopropyl)-1,3,4-oxadiazole], the IC50 turned out to be 9.23 nM. For `CC(C)(C)c1nnc(-c2nn(-c3ccc(Cl)cc3Cl)c(-c3ccc(Cl)cc3)c2S(C)(=O)=O)s1` [Example 100, 2-tert-butyl-5-(5-(4-chlorophenyl)-1-(2,4-dichlorophenyl)-4-(methylsulfonyl)-1H-pyrazol-3-yl)-1,3,4-thiadiazole], the IC50 worked out at 5.84 nM. Consider `CS(=O)(=O)c1c(-c2nnc(C3(C(F)(F)F)CC3)o2)nn(-c2ccc(Cl)cc2Cl)c1-c1ccc(Cl)cc1` [Example 81, 2-(5-(4-chlorophenyl)-1-(2,4-dichlorophenyl)-4-(methylsulfonyl)-1H-pyrazol-3-yl)-5-(1-(trifluoromethyl)cyclopropyl)-1,3,4-oxadiazole], for which the IC50 was 6.31 nM.

In general, IC50 refers to the midpoint of a concentration-inhibition curve.
